{
  "source": "patent US20110190165A1",
  "about": "“HIGH THROUGHPUT METHODS OF IDENTIFYING NEUTRAL LIPID SYNTHASES” (priority 2008, published 2011)",
  "key": {"[1]": {"details": "tested in humans; cited from earlier work"}, "ACAT": {"test_system": "ACAT", "details": "ACAT1 vs ACAT2; cited from earlier work"}, "[2]": {"test_system": "S. cerevisiae strain H1246 (quadruple knock-out)", "assay": "Growth of knock-out yeast in liquid medium supplemented with oleic acid", "details": "growth measured for 72 hours", "protocol": "Oleic acid, dissolved in ethanol at 0.5M, was supplemented to the cultures at the final concentrations indicated. The cultures were incubated at 30 °C, 250 rpm and the growth was monitored for 72 hours.\nThree yeast strains (wild type, dga1 knock-out and quadruple knock-out) were transformed with yeast expression vector pYES2.1-TOPO (Invitrogen) containing a cDNA coding for DGAT1 from several oilseed plants (canola, flax or castor bean). The same vector containing the gene coding for the bacterial protein LacZ served as the negative control. Transformed yeast cells were cultivated in 50 mL of uracil drop-out medium supplemented with 2% glucose for 48 hours shaking at 30° C. and 250 rpm. The cells were washed twice with water and inoculated in liquid media supplemented with 2% galactose, 1% raffinose to induce the expression of the recombinant proteins, and different concentrations of free fatty acids (0 to 1000 μM of oleic acid). […] Cell growth was measured for a period of 72 hours."}, "[3]": {"test_system": "quadruple knock-out strain cultures harboring vector with either DGAT1 or LacZ gene", "assay": "Growth of quadruple knock-out yeast expressing DGAT1 or LacZ on solid medium supplemented with fatty acids", "assay_type": "cell-based, Saccharomyces cerevisiae", "details": "for suitability for selection: 0.5 mM (500 μM) fatty acid; for growth of DGAT1 and LacZ cultures: 1 mM fatty acid; for selectivity of the media at lowered concentration: 0.5 mM fatty acid", "procedure": "(A) Plates of YNBG with and without supplement of 1 mM of oleic acid (C18:1) dissolved in ethanol. The plate without FA contained the same volume of ethanol only. (B) Plates of YNBG supplemented with 1 mM of palmitoleic (16:1^cisΔ9), linoleic (18:2^cisΔ9,12), α-linolenic (C18:3), docosahexaenoic (C22:6), ricinoleic (C18:1 OH), erucic (C22:1) and 0.5 mM of palmitic (C16:0) and stearic (C18:0) acids. The FAs were dissolved in ethanol at 0.5M or 0.25M and added to the YNBG prior to plating. (C) Plates supplemented with oleic, α-linolenic and docosahexaenoic acids at the final concentrations indicated. (D) Selection of yeast cells in medium with FA after transformation. H1246 cells were transformed with 1 μg of pYESBnDGAT1 (column 1), 1 μg of pYESLacZ (column 2) and 0.1 μg of pYESBnDGAT1 mixed with 0.9 μg of pYESLacZ (column 3). After transformation, yeast cells were recovered in liquid YNBD medium for 6 hours, inoculated in YNBG plates with or without supplement of 1 mM oleic acid and incubated at 30° C. for 6 days."}},
  "data": [
    {"compound": "CCCCCCCCN1CCc2c(C)c(CC(=O)O)c(C)c(NC(=O)C(C)(C)C)c21", "note": "[pactimibe]", "values": [
      {"measurement": "efficacy against atherosclerosis", "setting": "[1]", "result": "ineffective against atherosclerosis"},
      {"measurement": "harm", "setting": "[1]", "result": "probably harmful due to ACAT1 inhibition"},
      {"measurement": "selectivity among ACAT isoforms", "setting": "ACAT", "result": "nonselective ACAT inhibitors"}
    ]},
    {"compound": "CCCCCCCC/C=C\\CCCCCCCC(=O)O", "note": "[oleic acid]", "values": [
      {"measurement": "concentration most effective in distinguishing strains with and without TAG synthase activity", "setting": "[2]", "result": 1000, "unit": "µM"},
      {"measurement": "lowest concentration at which the inhibitory effect on growth was observed", "setting": "[2]; knock-out strains without recombinant DGAT1", "result": 25, "unit": "µM"},
      {"measurement": "colony formation on solid medium", "setting": "[3]; 1000 μM oleic acid, five days at 30° C., DGAT1 vs LacZ", "result": "only the cells expressing the recombinant DGAT1 formed visible colonies"}
    ]},
    {"compound": "CC/C=C\\C/C=C\\C/C=C\\CCCCCCCC(=O)O", "note": "[α-linolenic, α-linolenic acid]", "values": [
      {"measurement": "suitability for selection", "setting": "[3]", "result": "suitable for selection"},
      {"measurement": "growth of DGAT1 and LacZ cultures", "setting": "[3]", "result": "inhibited the growth of both cultures"}
    ]},
    {"compound": "CCCCCCCC/C=C\\CCCCCCCCCCCC(=O)O", "note": "[erucic, erucic acid]", "values": [
      {"measurement": "selectivity of the media at lowered concentration", "setting": "[3]", "result": "did not substantially improve the selectivity"}
    ]},
    {"compound": "CC(C)c1cc(C(C)C)c(CC(=O)NS(=O)(=O)Oc2c(C(C)C)cccc2C(C)C)c(C(C)C)c1", "note": "[avasimibe]", "values": [
      {"measurement": "efficacy against atherosclerosis", "setting": "[1]", "result": "ineffective against atherosclerosis"},
      {"measurement": "harm", "setting": "[1]", "result": "probably harmful due to ACAT1 inhibition"},
      {"measurement": "selectivity among ACAT isoforms", "setting": "ACAT", "result": "nonselective ACAT inhibitors"}
    ]},
    {"compound": "CCCCC/C=C\\C/C=C\\CCCCCCCC(=O)O", "note": "[linoleic, linoleic acid]", "values": [
      {"measurement": "suitability for selection", "setting": "[3]", "result": "suitable for selection"},
      {"measurement": "growth of DGAT1 and LacZ cultures", "setting": "[3]", "result": "inhibited the growth of both cultures"}
    ]},
    {"compound": "CCCCCCCCCCCCCCCCCC(=O)O", "note": "[stearic, stearic acid]", "values": [
      {"measurement": "selectivity of the media at lowered concentration", "setting": "[3]", "result": "did not substantially improve the selectivity"}
    ]},
    {"compound": "CCCCCCCCCCCCCCCC(=O)O", "note": "[palmitic, palmitic acid]", "values": [
      {"measurement": "selectivity of the media at lowered concentration", "setting": "[3]", "result": "did not substantially improve the selectivity"}
    ]}
  ]
}
